In BindingDB's records for doi:10.7270/Q2D798VP (Broad Institute, 2009):
pEC50: −log10 of the molar value.

Molecular target: T1, Zinc finger protein mex-5 (Caenorhabditis elegans, UniProt Q9XUB2)
T1 sequence (Q9XUB2 whole entry): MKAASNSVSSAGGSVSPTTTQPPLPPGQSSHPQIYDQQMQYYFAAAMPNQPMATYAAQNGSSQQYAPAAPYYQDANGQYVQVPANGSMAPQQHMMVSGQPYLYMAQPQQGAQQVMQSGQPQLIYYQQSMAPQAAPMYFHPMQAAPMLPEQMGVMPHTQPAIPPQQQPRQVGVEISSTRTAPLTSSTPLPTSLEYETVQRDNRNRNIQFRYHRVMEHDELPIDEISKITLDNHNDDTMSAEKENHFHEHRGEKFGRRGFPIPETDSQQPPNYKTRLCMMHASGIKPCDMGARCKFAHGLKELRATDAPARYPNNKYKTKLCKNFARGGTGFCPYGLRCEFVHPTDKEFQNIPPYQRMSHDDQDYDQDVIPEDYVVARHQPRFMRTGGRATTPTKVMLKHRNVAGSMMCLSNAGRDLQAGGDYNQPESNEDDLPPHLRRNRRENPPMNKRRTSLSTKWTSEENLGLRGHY
Experiment: MEX-5/TCR-2 RNA interaction inhibitors, dose response, biochemical, C. elegans, fluorescence polarization (AID 1960)

| Compound | pEC50 |
| --- | --- |
| CCC(=CC=C[C@@H]1C=C[C@@H]2CCC[C@H]2[C@@H]1C(=O)c1ccc[nH]1)[C@@H]1O[C@@H]([C@@H](C)C(=O)O)CC[C@@H]1C [2-(6-{1-ethyl-4-[4-(1H-pyrrol-2-ylcarbonyl)-2,3,3a,4,5,7a-hexahydro-1H-inden-5-yl]-1,3-butadienyl}-5-methyltetrahydro-2H-pyran-2-yl)propanoate] | 5.93 |
| COc1ccc(C2C3=C(CCCC3=O)OC(=N)C2C#N)c(OC)c1OC (stereo unspecified) [2-Amino-5-oxo-4-(2,3,4-trimethoxy-phenyl)-5,6,7,8-tetrahydro-4H-chromene-3-carbonitrile] | < 3.52 |
| O=CC(C=Nc1ccccn1)c1nc2ccccc2o1 (stereo unspecified) [2-Benzooxazol-2-yl-3-(pyridin-2-ylamino)-propenal] | < 3.52 |
| CN1C(=O)/C(=C/c2ccc(-c3ccccc3[N+](=O)[O-])o2)S/C1=N/c1ccc(Cl)c(C(=O)O)c1 [2-Chloro-5-[3-methyl-5-[1-[5-(2-nitro-phenyl)-furan-2-yl]-meth-(Z)-ylidene]-4-oxo-thiazolidin-(2Z)-ylideneamino]-benzoic acid] | 4.65 |
| O=C(CC(=O)c1ccccc1)C(=O)NNC(=O)c1ccccc1[N+](=O)[O-] [2-Nitro-benzoic acid N'-(2-hydroxy-4-oxo-4-phenyl-but-2-enoyl)-hydrazide] | 5.95 |
| Oc1csc(N=NCc2cccs2)n1 [2-[2-(thiophen-2-ylmethylidene)hydrazinyl]-1,3-thiazol-4-one] | < 3.52 |
| CCOc1cc(C=C2SC(Nc3ccc(CC)cc3)=NC2=O)ccc1OCC(=O)O [2-[2-ethoxy-4-[(Z)-[2-(4-ethylanilino)-4-oxo-1,3-thiazol-5-ylidene]methyl]phenoxy]acetic acid] | 3.83 |
| Cc1ccc(C(=O)C2C(=O)C(=O)N(Cc3ccco3)C2c2ccc(N(C)C)cc2)o1 (stereo unspecified) [2-[4-(dimethylamino)phenyl]-1-(2-furanylmethyl)-4-hydroxy-3-[(5-methyl-2-furanyl)-oxomethyl]-2H-pyrrol-5-one] | < 3.52 |
| O=C(O)COc1ccc(C=Cc2nnc(-c3ccccc3O)[nH]2)cc1 [2-[4-[(E)-2-[(5Z)-5-(6-oxo-1-cyclohexa-2,4-dienylidene)-1,2-dihydro-1,2,4-triazol-3-yl]ethenyl]phenoxy]acetic acid] | 6.02 |
| Cc1ccc(NNC2=Nc3ccccc3C2=O)cc1 [2-[(4-methylphenyl)hydrazo]-3-indolone] | 4.59 |
| CC1(C)CC(=O)C2=C(C1)OC(=N)C(C#N)[C@@]21C(=O)N(CC(N)=O)c2ccccc21 (stereo partly drawn) [2-[(4R)-2-amino-3-cyano-2',5-diketo-7,7-dimethyl-spiro[6,8-dihydrochromene-4,3'-indoline]-1'-yl]acetamide] | < 3.52 |
| N#CC1C(=N)OC2=C(C(=O)CCC2)[C@]12C(=O)N(CC(N)=O)c1ccccc12 (stereo partly drawn) [2-[(4R)-2-amino-3-cyano-2',5-diketo-spiro[7,8-dihydro-6H-chromene-4,3'-indoline]-1'-yl]acetamide] | < 3.52 |
| COc1cccc(CN2C(=O)C3(C4=C(CCCC4=O)OC(=N)C3C#N)c3ccccc32)c1 (stereo unspecified) [2-amino-1'-(3-methoxybenzyl)-2',5-dioxo-1',2',5,6,7,8-hexahydrospiro[chromene-4,3'-indole]-3-carbonitrile] | < 3.52 |
| COc1ccc(C2C3=C(CC(C)(C)CC3=O)OC(=N)C2C#N)cc1 (stereo unspecified) [2-amino-4-(4-methoxyphenyl)-7,7-dimethyl-5-oxo-6,8-dihydro-4H-1-benzopyran-3-carbonitrile] | < 3.52 |
| COc1ccc(C2C3=C(CC(C)CC3=O)OC(=N)C2C#N)c(OC)c1OC (stereo unspecified) [2-amino-5-keto-7-methyl-4-(2,3,4-trimethoxyphenyl)-4,6,7,8-tetrahydrochromene-3-carbonitrile] | < 3.52 |
| CCOc1cc(C2C(C(C)=O)=C(C)OC(=N)C2C#N)cc(Br)c1O (stereo unspecified) [2-azanyl-4-(3-bromanyl-5-ethoxy-4-oxidanyl-phenyl)-5-ethanoyl-6-methyl-4H-pyran-3-carbonitrile] | 4.91 |
| N#CC1C(=N)OC2=C(C(=O)CCC2)C1c1cc2c(cc1Br)OCO2 (stereo unspecified) [2-azanyl-4-(6-bromanyl-1,3-benzodioxol-5-yl)-5-oxidanylidene-4,6,7,8-tetrahydrochromene-3-carbonitrile] | < 3.52 |

The remaining lines, values ahead:

| pEC50 | Compound |
| --- | --- |
| < 3.52 | N#CC1C(=N)Oc2cc(O)c(Cl)cc2C1c1ccccc1F (stereo unspecified) [2-Amino-6-chloro-4-(2-fluoro-phenyl)-7-hydroxy-4H-chromene-3-carbonitrile] |
| < 3.52 | CC(N=Nc1ccc([N+](=O)[O-])cc1[N+](=O)[O-])c1cc2c(ccc3ccccc32)oc1=O (stereo unspecified) [2-[1-[(2,4-dinitrophenyl)hydrazinylidene]ethyl]-3-benzo[f][1]benzopyranone] |
| 4.66 | C=CCn1c(=O)c(=Cc2ccsc2)s/c1=C(\C#N)C(=O)NCCN1CCOCC1 [2-[3-allyl-4-keto-5-(3-thenylidene)thiazolidin-2-ylidene]-2-cyano-N-(2-morpholinoethyl)acetamide] |
| 4.42 | COc1ccc(C2CC(=O)C(=CNCCCO)C(=O)C2)cc1 (stereo unspecified) [2-[(3-hydroxypropylamino)methylidene]-5-(4-methoxyphenyl)cyclohexane-1,3-dione] |
| < 3.52 | NC(=O)c1ccccc1N=CCC(=O)c1ccc(F)cc1 [2-[[(E)-3-(4-fluorophenyl)-3-keto-prop-1-enyl]amino]benzamide] |
| < 3.52 | CC1(C)CC(=O)C2=C(C1)OC(=N)C(C#N)C21C(=O)N(CN2CCOCC2)c2ccccc21 (stereo unspecified) [2-amino-2',5-diketo-7,7-dimethyl-1'-(morpholinomethyl)spiro[6,8-dihydrochromene-4,3'-indoline]-3-carbonitrile] |
| < 3.52 | COc1ccc(C2C3=C(CCCC3=O)OC(=N)C2C#N)cc1OC (stereo unspecified) [2-amino-4-(3,4-dimethoxyphenyl)-5-keto-4,6,7,8-tetrahydrochromene-3-carbonitrile] |
| < 3.52 | COc1ccc(C2C3=C(CC(C)(C)CC3=O)OC(=N)C2C#N)cc1OC (stereo unspecified) [2-amino-4-(3,4-dimethoxyphenyl)-5-keto-7,7-dimethyl-6,8-dihydro-4H-chromene-3-carbonitrile] |
| 4.76 | N#CC1=C2CCCCC2C(c2cccnc2)C(C#N)(C#N)C1=N (stereo unspecified) [2-amino-4-(3-pyridinyl)-4a,5,6,7-tetrahydro-4H-naphthalene-1,3,3-tricarbonitrile] |
| < 3.52 | COc1cc(OC)c(C2C3=C(CC(C)CC3=O)OC(=N)C2C#N)cc1OC (stereo unspecified) [2-amino-4-asaryl-5-keto-7-methyl-4,6,7,8-tetrahydrochromene-3-carbonitrile] |
| < 3.52 | N#CC1C(=N)OC2=C(C(=O)CCC2)C1c1ccccc1 (stereo unspecified) [2-amino-5-keto-4-phenyl-4,6,7,8-tetrahydrochromene-3-carbonitrile] |
| < 3.52 | COc1ccc(C2C3=C(CC(C)(C)CC3=O)OC(=N)C2C#N)c(OC)c1OC (stereo unspecified) [2-amino-5-keto-7,7-dimethyl-4-(2,3,4-trimethoxyphenyl)-6,8-dihydro-4H-chromene-3-carbonitrile] |
| < 3.52 | CC1(C)CC(=O)C2=C(C1)OC(=N)C(C#N)C2c1ccccc1 (stereo unspecified) [2-amino-5-keto-7,7-dimethyl-4-phenyl-6,8-dihydro-4H-chromene-3-carbonitrile] |
| 4.83 | CC1CCC2=C(C#N)C(=N)C(C#N)(C#N)C(c3cccs3)C2C1 (stereo unspecified) [2-amino-6-methyl-4-(2-thienyl)-4a,5,6,7-tetrahydro-4H-naphthalene-1,3,3-tricarbonitrile] |
